Laboratory results from paper PMC11649115, “In vitro safety evaluation of dopamine D3R antagonist, R-VK4-116, as a potential medication for the treatment of opioid use disorder” (PLOS ONE, 2024).
Like-named read-outs stand apart in the source and are kept apart here.

Columns and labels:
[1] = Metabolite identification in liver microsomes; format: in vitro ADME; conditions: 10 μM R-VK4-116, 120 min
Protocol: Reactions were stopped by removing 100 μl aliquots at 120 min and mixing with 200 μl of acetonitrile. Following brief vortexing and centrifugation, the supernatant was transferred to an HPLC vial fitted with a 300 μl glass insert for metabolite analysis using a Sciex 4000QTrap mass spectrometer.

Kir2.1 = molecular target: T1, Kir2.1 (Homo sapiens, UniProt P63252); experiment: CiPA IonChannelProfiler Cardiac Panel, QPatch; format: cell-based; conditions: Kir2.1, 100 μM
T1 sequence (P63252 1-427): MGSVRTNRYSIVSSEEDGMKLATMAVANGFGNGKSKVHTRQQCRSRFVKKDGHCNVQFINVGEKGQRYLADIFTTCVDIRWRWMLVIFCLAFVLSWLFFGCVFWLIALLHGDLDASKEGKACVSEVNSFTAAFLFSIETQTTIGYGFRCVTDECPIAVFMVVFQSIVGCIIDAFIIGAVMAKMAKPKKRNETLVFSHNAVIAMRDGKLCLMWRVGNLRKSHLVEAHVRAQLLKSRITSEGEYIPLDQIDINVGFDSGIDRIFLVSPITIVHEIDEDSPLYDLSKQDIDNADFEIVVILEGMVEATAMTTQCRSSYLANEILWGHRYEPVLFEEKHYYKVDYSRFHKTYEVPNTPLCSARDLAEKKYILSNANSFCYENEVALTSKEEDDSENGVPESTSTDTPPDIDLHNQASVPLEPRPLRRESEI

[2] = design: method as in PMID 31526003; conditions: rats, 10 mg/kg oral dose ref 8; cited from earlier work
CYP3A4 = CYP3A4 (Homo sapiens, UniProt P08684); experiment: in vitro; conditions: microsomes
[3] = Metabolic stability in hepatocyte; conditions: Beagle, dog, hepatocytes in suspension
Protocol: (§1) CYP3A4 substrate Midazolam (10 μM) was prepared and incubated in the same manner. […] In addition, in vitro half-life (t1/2, min) and intrinsic clearance (CLint, μl/min/10^6 cells) were calculated [10, 11].

dog hepatocytes = experiment: Metabolic stability in hepatocyte; conditions: dog hepatocytes
Protocol: as §1

[4] = Metabolic stability in liver microsomes; conditions: rat, pH 7.4
CYP2C8 = molecular target: T2, CYP2C8 (Homo sapiens, UniProt P10632); experiment: CYP inhibition in human liver microsomes; conditions: human liver microsomes
T2 sequence (P10632 1-490): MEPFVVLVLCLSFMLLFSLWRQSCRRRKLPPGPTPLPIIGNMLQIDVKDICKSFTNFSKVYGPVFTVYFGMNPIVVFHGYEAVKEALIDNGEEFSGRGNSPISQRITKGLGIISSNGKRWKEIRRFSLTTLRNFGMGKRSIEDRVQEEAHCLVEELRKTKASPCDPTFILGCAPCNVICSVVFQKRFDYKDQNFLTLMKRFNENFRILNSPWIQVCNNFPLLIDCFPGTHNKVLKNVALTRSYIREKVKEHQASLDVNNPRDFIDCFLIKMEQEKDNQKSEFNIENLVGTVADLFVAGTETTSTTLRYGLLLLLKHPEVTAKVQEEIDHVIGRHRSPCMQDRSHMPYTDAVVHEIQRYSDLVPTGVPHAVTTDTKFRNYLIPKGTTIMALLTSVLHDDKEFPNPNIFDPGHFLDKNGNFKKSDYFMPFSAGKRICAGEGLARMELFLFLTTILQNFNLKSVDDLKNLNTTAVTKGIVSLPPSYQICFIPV

[5] = CYP activity (% of Control) 3A4 (Midazolam)
[6] = CYP activity (% of Control) 3A4 (Testosterone)
[7] = heat-inactivated liver microsomes

CYP3A4, sequence (P08684 2-503): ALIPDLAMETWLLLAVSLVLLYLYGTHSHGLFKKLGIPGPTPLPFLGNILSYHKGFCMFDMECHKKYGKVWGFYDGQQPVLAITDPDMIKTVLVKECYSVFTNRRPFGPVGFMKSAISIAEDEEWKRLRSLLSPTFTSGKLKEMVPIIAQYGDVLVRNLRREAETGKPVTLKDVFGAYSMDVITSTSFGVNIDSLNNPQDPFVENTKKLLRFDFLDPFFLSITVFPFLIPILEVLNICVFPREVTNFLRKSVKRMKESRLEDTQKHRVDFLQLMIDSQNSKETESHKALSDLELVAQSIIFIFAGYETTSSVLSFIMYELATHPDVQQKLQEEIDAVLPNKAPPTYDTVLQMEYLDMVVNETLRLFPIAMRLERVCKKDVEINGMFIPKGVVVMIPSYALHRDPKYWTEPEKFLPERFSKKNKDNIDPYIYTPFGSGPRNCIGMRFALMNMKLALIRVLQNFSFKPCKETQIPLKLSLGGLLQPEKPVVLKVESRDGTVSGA

Question: For `CCc1cc(Cl)c(OC)c(N2CCN(CC(O)CCNC(=O)c3cc4ccccc4[nH]3)CC2)c1` (centres unmarked) [R-VK4-116, N-(4-(4-(3-chloro-5-ethyl-2-methoxyphenyl)piperazin-1-yl)-3-hydroxybutyl)-1H-indole-2-carboxamide], which “% Area” value ([1]; dog liver microsomes, MRM product ion 116.1) is on record?
Answer: Its value is 10.4%.

Question: What about the “% Area” value ([1]; dog liver microsomes, MRM product ion 144.1) of the same compound?
Answer: Its value is 28.6%.

Question: And the “% Area” value ([1]; human liver microsomes, MRM product ion 116.1)?
Answer: Its value is 62.4%.

Question: And the “% Area” value ([1]; human liver microsomes, MRM product ion 144.1)?
Answer: The value was 4.1%.

Question: What about the “% Area” value ([1]; rat liver microsomes, MRM product ion 116.1) of the same compound?
Answer: Its value is 8.2%.

Question: And the “% Area” value ([1]; rat liver microsomes, MRM product ion 144.1)?
Answer: The value was 86.1%.

Question: And the inhibition at 100 µM (Kir2.1; read-out: inhibition, End)?
Answer: The inhibition at 100 µM was 97.2%.

Question: What about the inhibition at 100 µM (Kir2.1; read-out: inhibition, Peak) of the same compound?
Answer: The inhibition at 100 µM was 52.6%.

Question: And the Cmax [2]?
Answer: The Cmax was 454 nM.

Question: What about the activity at 20 min, 0.1 µM (CYP3A4; [5]) of the same compound?
Answer: Its activity at 20 min, 0.1 µM is 97.5 ± 3.9%.

Question: What about the activity at 20 min, 0.3 µM (CYP3A4; [5]) of the same compound?
Answer: The activity at 20 min, 0.3 µM was 93.9 ± 2.4%.

Question: And the activity at 20 min, 1 µM (CYP3A4; [5])?
Answer: Its activity at 20 min, 1 µM is 95.3 ± 0.9%.

Question: And the activity at 20 min, 3 µM (CYP3A4; [5])?
Answer: The activity at 20 min, 3 µM was 95.6 ± 4.2%.

Question: And the activity at 20 min, 10 µM (CYP3A4; [5])?
Answer: Its activity at 20 min, 10 µM is 96.9 ± 2%.

Question: What about the activity at 20 min, 30 µM (CYP3A4; [5]) of the same compound?
Answer: The activity at 20 min, 30 µM was 92.2 ± 0.7%.

Question: What about the activity at 20 min, 60 µM (CYP3A4; [5]) of the same compound?
Answer: Its activity at 20 min, 60 µM is 92.6 ± 1%.

Question: What about the activity at 20 min, 100 µM (CYP3A4; [5]) of the same compound?
Answer: The activity at 20 min, 100 µM was 96.9 ± 3.2%.

Question: And the activity at 20 min, 0.1 µM (CYP3A4; [6])?
Answer: The activity at 20 min, 0.1 µM was 96.5 ± 3.6%.

Question: And the activity at 20 min, 0.3 µM (CYP3A4; [6])?
Answer: The activity at 20 min, 0.3 µM was 93.2 ± 3.8%.

Question: And the activity at 20 min, 1 µM (CYP3A4; [6])?
Answer: The activity at 20 min, 1 µM was 94.2 ± 2.4%.

Question: What about the activity at 20 min, 3 µM (CYP3A4; [6]) of the same compound?
Answer: The activity at 20 min, 3 µM was 92.8 ± 4.8%.

Question: And the activity at 20 min, 10 µM (CYP3A4; [6])?
Answer: Its activity at 20 min, 10 µM is 93.9 ± 2.1%.

Question: What about the activity at 20 min, 30 µM (CYP3A4; [6]) of the same compound?
Answer: The activity at 20 min, 30 µM was 94.2 ± 1.5%.

Question: And the activity at 20 min, 60 µM (CYP3A4; [6])?
Answer: The activity at 20 min, 60 µM was 92.1 ± 1.1%.

Question: What about the activity at 20 min, 100 µM (CYP3A4; [6]) of the same compound?
Answer: Its activity at 20 min, 100 µM is 95.5 ± 3.7%.

Question: What about the half-life at 0.5 μM [3] of the same compound?
Answer: The half-life at 0.5 μM was 1.52 h.

Question: And the half-life at 10 μM [3]?
Answer: The half-life at 10 μM was 5.78 h.

Question: What about the hepatocyte CLint at 0.5 μM [3] of the same compound?
Answer: The hepatocyte CLint at 0.5 μM was 15.2 µL/min/1e6 cells.

Question: And the hepatocyte CLint at 10 μM [3]?
Answer: Its hepatocyte CLint at 10 μM is 4 µL/min/1e6 cells.

Question: And the “% remaining Vs T = 0 min” value (dog hepatocytes; 0.5 μM, 0 min)?
Answer: The value was 100.0%.

Question: What about the “% remaining Vs T = 0 min” value (dog hepatocytes; 0.5 μM, 30 min) of the same compound?
Answer: Its value is 71.2%.

Question: And the “% remaining Vs T = 0 min” value (dog hepatocytes; 0.5 μM, 60 min)?
Answer: The value was 61.2%.

Question: And the “% remaining Vs T = 0 min” value (dog hepatocytes; 0.5 μM, 90 min)?
Answer: The value was 45.4%.

Question: And the “% remaining Vs T = 0 min” value (dog hepatocytes; 0.5 μM, 120 min)?
Answer: Its value is 40.1%.

Question: And the “% remaining Vs T = 0 min” value (dog hepatocytes; 10 μM, 0 min)?
Answer: The value was 100.0%.

Question: What about the “% remaining Vs T = 0 min” value (dog hepatocytes; 10 μM, 30 min) of the same compound?
Answer: Its value is 85.3%.

Question: What about the “% remaining Vs T = 0 min” value (dog hepatocytes; 10 μM, 60 min) of the same compound?
Answer: Its value is 85.5%.

Question: What about the “% remaining Vs T = 0 min” value (dog hepatocytes; 10 μM, 90 min) of the same compound?
Answer: Its value is 80.3%.

Question: What about the “% remaining Vs T = 0 min” value (dog hepatocytes; 10 μM, 120 min) of the same compound?
Answer: Its value is 76.4%.

Question: And the remaining at 0 h, 1 μM [4, 7]?
Answer: Its remaining at 0 h, 1 μM is 100%.

Question: And the remaining at 0 h, 10 μM [4, 7]?
Answer: The remaining at 0 h, 10 μM was 100%.

Question: What about the remaining at 2 h, 1 μM [4, 7] of the same compound?
Answer: Its remaining at 2 h, 1 μM is 94.9%.

Question: And the remaining at 2 h, 10 μM [4, 7]?
Answer: The remaining at 2 h, 10 μM was 95.4%.

Question: And the remaining at 0 h, 1 μM ([4]; liver microsomes)?
Answer: Its remaining at 0 h, 1 μM is 100%.

Question: What about the remaining at 0 h, 10 μM ([4]; liver microsomes) of the same compound?
Answer: Its remaining at 0 h, 10 μM is 100%.

Question: What about the remaining at 0.5 h, 1 μM ([4]; liver microsomes) of the same compound?
Answer: Its remaining at 0.5 h, 1 μM is 79.4%.

Question: And the remaining at 0.5 h, 10 μM ([4]; liver microsomes)?
Answer: Its remaining at 0.5 h, 10 μM is 87.1%.

Question: And the remaining at 1 h, 1 μM ([4]; liver microsomes)?
Answer: The remaining at 1 h, 1 μM was 56.8%.

Question: And the remaining at 1 h, 10 μM ([4]; liver microsomes)?
Answer: Its remaining at 1 h, 10 μM is 79.7%.

Question: What about the remaining at 1.5 h, 1 μM ([4]; liver microsomes) of the same compound?
Answer: Its remaining at 1.5 h, 1 μM is 45.5%.

Question: And the remaining at 1.5 h, 10 μM ([4]; liver microsomes)?
Answer: The remaining at 1.5 h, 10 μM was 73.3%.

Question: And the remaining at 2 h, 1 μM ([4]; liver microsomes)?
Answer: The remaining at 2 h, 1 μM was 37.5%.

Question: And the remaining at 2 h, 10 μM ([4]; liver microsomes)?
Answer: The remaining at 2 h, 10 μM was 69.4%.

Question: And the CYP2C8 inhibition (CYP2C8; up to 100 μM)?
Answer: The CYP2C8 inhibition was “did not inhibit CYP significantly”.

Question: What about the activity at 20 min, 0.1 µM (CYP2C8; human, probe paclitaxel) of the same compound?
Answer: Its activity at 20 min, 0.1 µM is 85.9 ± 18.2%.

Question: And the activity at 20 min, 0.3 µM (CYP2C8; human, probe paclitaxel)?
Answer: Its activity at 20 min, 0.3 µM is 68.2 ± 2.8%.

Question: And the activity at 20 min, 1 µM (CYP2C8; human, probe paclitaxel)?
Answer: Its activity at 20 min, 1 µM is 70.5 ± 7.1%.

Question: What about the activity at 20 min, 3 µM (CYP2C8; human, probe paclitaxel) of the same compound?
Answer: The activity at 20 min, 3 µM was 95.7 ± 11.2%.

Question: And the activity at 20 min, 10 µM (CYP2C8; human, probe paclitaxel)?
Answer: Its activity at 20 min, 10 µM is 89.8 ± 19.7%.

Question: What about the activity at 20 min, 30 µM (CYP2C8; human, probe paclitaxel) of the same compound?
Answer: The activity at 20 min, 30 µM was 75.8 ± 4.5%.

Question: What about the activity at 20 min, 60 µM (CYP2C8; human, probe paclitaxel) of the same compound?
Answer: The activity at 20 min, 60 µM was 75.3 ± 6.4%.

Question: What about the activity at 20 min, 100 µM (CYP2C8; human, probe paclitaxel) of the same compound?
Answer: Its activity at 20 min, 100 µM is 80.6 ± 15.2%.
